Drawing on PubChem BioAssay AID330 (DTP/NCI, 2004), this text covers T/C for 23 compounds.

Where “and” joins values, the source holds several entries; their conditions need not be identical. Identical values can stand only once. Inconclusive results and toxic doses are left out. Peptide text beside a SMILES is read from it.

The experiment has as its system P388 leukemia ip, CD2F1 mice, survival T/C. Briefly: NCI In Vivo Anticancer Drug Screen. Data for tumor model P388 Leukemia (intraperitoneal) in CD2F1 (CDF1) mice. The settings on record: endpoint: median survival time, higher = longer survival. The gist of the method: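 Mice carrying the transplanted tumor received test compound or vehicle. Survival was recorded in each group, and the value is the treated-group measurement divided by that of the vehicle-treated control group.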

[1] abbreviates: dose: 100.0 mg/kg/injection, schedule: Q04DX003 (ip), vehicle: saline with Tween-80.
[2] abbreviates: dose: 200.0 mg/kg/injection, schedule: Q04DX003 (ip), vehicle: saline with Tween-80.
[3] abbreviates: dose: 400.0 mg/kg/injection, schedule: Q04DX003 (ip), vehicle: saline with Tween-80.
The mark [4] stands for this setting: dose: 50.0 mg/kg/injection, schedule: Q01DX005 (ip), vehicle: saline.
Setting [5] is: dose: 100.0 mg/kg/injection, schedule: Q01DX005 (ip), vehicle: saline.
[6] abbreviates: dose: 200.0 mg/kg/injection, schedule: Q01DX005 (ip), vehicle: saline.
Where [7] appears, read: dose: 60.0 mg/kg/injection, schedule: Q01DX005 (ip), vehicle: Klucel (hydroxypropylcellulose) (HPC).
[8] abbreviates: dose: 120.0 mg/kg/injection, schedule: Q01DX005 (ip), vehicle: Klucel (hydroxypropylcellulose) (HPC).
[9] abbreviates: dose: 240.0 mg/kg/injection, schedule: Q01DX005 (ip), vehicle: Klucel (hydroxypropylcellulose) (HPC).
The mark [10] stands for this setting: dose: 50.0 mg/kg/injection, schedule: Q04DX003 (ip), vehicle: saline with Tween-80.

Consider `C[CH2][Pb]([CH2]C)([CH2]C)[O]C(=O)COc1ccccc1`, for which the T/C is 100 % of control (dose: 1.5 mg/kg/injection, schedule: Q04DX003 (ip), vehicle: Klucel (hydroxypropylcellulose) (HPC)); 100 % of control (dose: 3.0 mg/kg/injection, schedule: Q04DX003 (ip), vehicle: Klucel (hydroxypropylcellulose) (HPC)); 106 % of control (dose: 6.0 mg/kg/injection, schedule: Q04DX003 (ip), vehicle: Klucel (hydroxypropylcellulose) (HPC)).

As to `CCCCCC(O)CCCCC`, the T/C under setting [1] was 100 % of control, the T/C under setting [2] is 109 % of control and the T/C under setting [3] is 100 % of control.

Take `NC(CC(=O)O)C(=O)NC(CC(=O)O)C(=O)O` (stereo not drawn) (H-Asp-Asp-OH; configuration not given here): the T/C was 101 % of control under setting [4], 99 % of control under setting [5] and 97 % of control under setting [6].

For `Fc1cccc(Cl)c1C(Nc1ncccn1)Nc1ncccn1`, the T/C is 100 % of control under setting [7], 94 % of control under setting [8] and 88 % of control under setting [9].

As for `CCN(CC)CCCC(C)Nc1nccc2cccc(Cl)c12` (stereo not drawn), the T/C is, setting by setting: under setting [4], 104 % of control; under setting [5], 104 % of control.

For the compound `CCN(CCNc1ccc(CO)c2sc3ccccc3c(=O)c12)CC(C)(C)O`, the T/C runs as follows: (dose: 265.0 mg/kg/injection, schedule: Q04DX003 (ip), vehicle: saline with Tween-80) 123 % of control; under setting [3], 159 % of control; (dose: 600.0 mg/kg/injection, schedule: Q04DX003 (ip), vehicle: saline with Tween-80) 185 % of control.

As for `O=C(Oc1ccc[nH]c1=O)c1ccccc1`, the T/C was 108 % of control and 98 % of control (dose: 37.5 mg/kg/injection, schedule: Q01DX009 (ip), vehicle: saline); 101 % of control and 105 % of control (dose: 75.0 mg/kg/injection, schedule: Q01DX009 (ip), vehicle: saline); 107 % of control (dose: 150.0 mg/kg/injection, schedule: Q01DX009 (ip), vehicle: saline); 101 % of control and 110 % of control (dose: 300.0 mg/kg/injection, schedule: Q01DX009 (ip), vehicle: saline); 101 % of control and 107 % of control (dose: 600.0 mg/kg/injection, schedule: Q01DX009 (ip), vehicle: saline).

As to `CCC(=O)c1ccc(OC(C)=O)cc1`, the T/C by setting is: under setting [10], 103 % of control; under setting [1], 103 % of control; under setting [2], 96 % of control.

With `O=C(CC[N+](=O)[O-])OCC1OC(OC(=O)CC[N+](=O)[O-])C(O)C(O)C1O` (stereo not drawn), the T/C is, setting by setting: (dose: 12.5 mg/kg/injection, schedule: Q01DX005 (ip), vehicle: water) 98 % of control; (dose: 25.0 mg/kg/injection, schedule: Q01DX001 (ip), vehicle: saline + alcohol) 102 % of control; (dose: 25.0 mg/kg/injection, schedule: Q01DX005 (ip), vehicle: water) 104 % of control; (dose: 50.0 mg/kg/injection, schedule: Q01DX001 (ip), vehicle: saline + alcohol) 96 % of control; (dose: 50.0 mg/kg/injection, schedule: Q01DX005 (ip), vehicle: water) 97 % of control; (dose: 100.0 mg/kg/injection, schedule: Q01DX001 (ip), vehicle: saline + alcohol) 105 % of control. The T/C (dose: 100.0 mg/kg/injection, schedule: Q01DX005 (ip), vehicle: water) is 95 % of control and the T/C (dose: 200.0 mg/kg/injection, schedule: Q01DX005 (ip), vehicle: water) is 100 % of control.

As for `NCCC(=O)CN`, the T/C by setting is: (dose: 100.0 mg/kg/injection, schedule: Q04DX003 (ip), vehicle: saline) 104 % of control; (dose: 200.0 mg/kg/injection, schedule: Q04DX003 (ip), vehicle: saline) 109 % of control; (dose: 400.0 mg/kg/injection, schedule: Q04DX003 (ip), vehicle: saline) 104 % of control.

With `Cc1ccc(S(=O)(=O)N/N=C/c2c(-c3ccc(Cl)cc3)nc3n2CCS3)cc1`, the T/C (dose: 100.0 mg/kg/injection, schedule: Q01DX001 (ip), vehicle: Klucel (hydroxypropylcellulose) (HPC)) is 100 % of control; the T/C (dose: 200.0 mg/kg/injection, schedule: Q01DX001 (ip), vehicle: Klucel (hydroxypropylcellulose) (HPC)) was 92 % of control; the T/C (dose: 400.0 mg/kg/injection, schedule: Q01DX001 (ip), vehicle: Klucel (hydroxypropylcellulose) (HPC)) was 94 % of control.

For `CCOC(=O)c1ccc(NC(=O)Nc2cccc(O)c2)cc1`, the T/C runs as follows: under setting [7], 107 % of control; under setting [8], 104 % of control; under setting [9], 91 % of control.

For the compound `Nc1nnc2nc(CC(=O)Cc3ccccc3)c(CC(=O)Cc3ccccc3)nn12`, the T/C is, setting by setting: (dose: 60.0 mg/kg/injection, schedule: Q01DX005 (ip), vehicle: saline) 101 % of control; (dose: 120.0 mg/kg/injection, schedule: Q01DX005 (ip), vehicle: saline) 100 % of control; (dose: 240.0 mg/kg/injection, schedule: Q01DX005 (ip), vehicle: saline) 100 % of control.

In the case of `Cc1ccc(C)c(OP2(=O)NC3CCCCC3N2)c1` (stereo not drawn), the T/C is, setting by setting: (dose: 100.0 mg/kg/injection, schedule: Q04DX002 (ip), vehicle: Klucel (hydroxypropylcellulose) (HPC)) 91 % of control; (dose: 200.0 mg/kg/injection, schedule: Q04DX002 (ip), vehicle: Klucel (hydroxypropylcellulose) (HPC)) 89 % of control.

On to `c1ccc(C2CC(c3ccc(C4=NN(c5ccccc5)C(c5ccccc5)C4)cc3)=NN2c2ccccc2)cc1` (stereo not drawn), for which the T/C is 102 % of control (dose: 25.0 mg/kg/injection, schedule: Q04DX003 (ip), vehicle: saline with Tween-80); 91 % of control under setting [10]; 87 % of control under setting [1]; 89 % of control under setting [2]; 100 % of control under setting [3].

As to `Cc1c(O)c(O)cc[n+]1C1OC(CO)C(O)C1O` (stereo not drawn), the T/C was 98 % of control under setting [5]; 100 % of control under setting [6]; 102 % of control (dose: 400.0 mg/kg/injection, schedule: Q01DX005 (ip), vehicle: saline).

As for `NC(=S)N/N=C/c1cc(Cl)sc1Cl`, the T/C is, setting by setting: (dose: 50.0 mg/kg/injection, schedule: Q01DX005 (ip), vehicle: saline with Tween-80) 102 % of control; (dose: 100.0 mg/kg/injection, schedule: Q01DX005 (ip), vehicle: saline with Tween-80) 98 % of control; (dose: 200.0 mg/kg/injection, schedule: Q01DX005 (ip), vehicle: saline with Tween-80) 96 % of control.

Regarding `Cn1nnc(-c2ccccc2)n1`, the T/C by setting is: (dose: 100.0 mg/kg/injection, schedule: Q04DX002 (ip), vehicle: saline with Tween-80) 107 % of control; (dose: 200.0 mg/kg/injection, schedule: Q04DX002 (ip), vehicle: saline with Tween-80) 102 % of control; (dose: 400.0 mg/kg/injection, schedule: Q04DX002 (ip), vehicle: saline with Tween-80) 112 % of control.

In the case of `NC(N)=NCCC(=O)c1cnc(N)[nH]1`, the T/C was 106 % of control (dose: 8.75 mg/kg/injection, schedule: Q01DX005 (ip), vehicle: Klucel (hydroxypropylcellulose) (HPC)); 107 % of control (dose: 17.5 mg/kg/injection, schedule: Q01DX005 (ip), vehicle: Klucel (hydroxypropylcellulose) (HPC)); 100 % of control (dose: 35.0 mg/kg/injection, schedule: Q01DX005 (ip), vehicle: Klucel (hydroxypropylcellulose) (HPC)).

For `Cc1cc(=O)[nH]c(Nc2ccccc2)n1`, the T/C under setting [1] is 100 % of control, the T/C under setting [2] is 90 % of control and the T/C under setting [3] was 100 % of control.

In the case of `O=C(O)c1n[nH]c2ccccc2c1=O`, the T/C by setting is: (dose: 1.56 mg/kg/injection, schedule: Q01DX009 (ip), vehicle: other) 101 % of control; (dose: 3.13 mg/kg/injection, schedule: Q01DX009 (ip), vehicle: other) 105 % of control; (dose: 6.25 mg/kg/injection, schedule: Q01DX009 (ip), vehicle: other) 97 % of control; (dose: 12.5 mg/kg/injection, schedule: Q01DX009 (ip), vehicle: other) 109 % of control; (dose: 25.0 mg/kg/injection, schedule: Q01DX009 (ip), vehicle: other) 110 % of control and 90 % of control.

As for `CCC(C)NS(=O)(=O)c1ccccc1C(=O)OC` (stereo not drawn), the T/C is 99 % of control (dose: 50.0 mg/kg/injection, schedule: Q01DX005 (ip), vehicle: Klucel (hydroxypropylcellulose) (HPC)); 99 % of control (dose: 100.0 mg/kg/injection, schedule: Q01DX005 (ip), vehicle: Klucel (hydroxypropylcellulose) (HPC)); 97 % of control (dose: 200.0 mg/kg/injection, schedule: Q01DX005 (ip), vehicle: Klucel (hydroxypropylcellulose) (HPC)).

In the case of `CN1C(=O)[C@@H]2N(N(C)C1=O)[C@@]1(Br)C(=O)NC(=O)[C@@]21Br`, the T/C is 97 % of control under setting [7], 100 % of control under setting [8] and 91 % of control under setting [9].
